Data on seven compounds can be found in US20020156301A1, “Triphenylmethane derivatives and use thereof” (Sumitomo Chemical Co., Ltd., priority 1997, published 2002).

Marks after values point to notes of the source that are not given here.

Assay [1] deals with α- and β-isoforms of human estrogen receptor. As to the kind of experiment: Antiestrogenic activity: ERE-luciferase reporter in HeLa cells transfected with hERα or hERβ, with 17β-estradiol. Format: cell-based. To be noted: relative luminescence for β-isoform divided by that for α-isoform, 17β-estradiol 100 pM (α), 1 nM (β). The source says:
cDNA fragments for α- and β-isoforms of human estrogen receptor were cloned from a human liver cDNA library (Toyobo Co, Ltd.) by RT-PCR using oligonucleotides having the following base sequences as primers. For cloning the a-isoform, oligonucleotides 5′-[…]-3′ and 5′-[…]-3′ were used, while oligonucleotides 5′-[…]-3′ and 5′-[…]-3′ were used for cloning the β-isoform. The CDNA fragments for the α- and β-isoforms obtained by the RT-PCR procedures were blunt-ended, and each inserted into a vector for expression pRc/RSV (Invitrogen) at its blunt-ended Hind III cleavage site to obtain expression plasmids pRc-RSV-hERα and pRc-RSV-hERβ. In addition, an oligonucleotide 5′-[…]-3′ comprising an estrogen response element was inserted into a vector pGV-P (Toyo Ink Mfg. Co., Ltd.) at the Sma I cleavage site to obtain a luciferase reporter plasmid pGV-ERE.
Separately, HeLa cells which had been subcultured in Eagle's MEM medium containing 10% (v/v) phenol red-free and active charcoal-treated serum were inoculated in 24-well plates (φ16 mm well) at a density of 40,000 cells/well, cultured for 24 hours at 37° C. in the presence of 5% CO2, and then the medium was exchanged with serum-free Eagle's MEM medium.
The above expression plasmid pRc-RSV-hERα or pRc-RSV-hERβ, and the luciferase reporter plasmid pGV-ERE incorporating the estrogen response element were transfected into the above HeLa cells using the lipofectin method. Specifically, 0.3 μg of the expression plasmid pRc-RSV-hERα or pRc-RSV-hERβ, 0.1 μg of pGV-ERE, and 0.35 μl of Lipofectin mixed together, and added to the above HeLa cells. The HeLa cells were then cultured for 6 hours at 37° C. in the presence of 5% CO2. Next, the medium was exchanged with Eagle's MEM medium containing 10% serum (active charcoal-treated), and the cultivation was continued overnight at 37° C. under 5% CO2. Furthermore, the medium was exchanged with Eagle's MEM medium containing 10% serum (active charcoal-treated) which had been further supplemented with a solution of a test compound in DMSO (or DMSO alone) and 17β-estradiol (final concentration: 100 pM for the α-isoform, and 1 nM for the β-isoform), and the cells were cultured for 48 hours. After removing the medium and washing the cells twice with PBS(−), 50 μl/well of a lysis solution was added, and the cells were lysed at room temperature. An aliquot of this cell lysate was mixed with a luciferase assay substrate solution (Toyo Ink Mfg. Co., Ltd.), and the luminescence was measured using a luminometer. For each of α- and β-isoforms of estrogen receptor, the relative value of luminescence obtained in each experiment in which 17β-estradiol and a solution of one of test compounds in DMSO were added was then calculated, considering the luminescence obtained when 17β-estradiol and DMSO were added as 100. Next, the antiestrogenic activity (β/α) was calculated by dividing the relative value thus obtained for the β-isoform by that for the α-isoform.
(A reporter such as luciferase makes a cellular process visible.)

The test system of assay [2] is Rat osteoblastic cell line UMR 106. The assay is described as follows: Effects on osteoblast: ALP activity and TGFβ amount. Format: cell-based. As to conditions: two days, corrected for protein; for ALP activity, relative value considering the value for control as 1: UMR 106 cells; for TGFβ, relative value considering the value for control as 1: UMR 106 medium supernatant. How it is done:
Rat osteoblastic cell line UMR 106 was subcultured in Eagle's MEM medium containing 10% fetal bovine serum (active charcoal-treated), inoculated in 6-well plates (φ 36 mm well) at a density of 20,000 cells/well, and cultured overnight in 2 ml/well of the same serum-containing Eagle's MEM medium at 37° C. in the presence of 5% CO2. On the following day, the medium was aspirated, and the wells were washed by adding 1 ml/well of serum-free Eagle's MEM medium supplemented with Supplement A (a solution of insulin, transferrin, and selenium; Gibco BRL). After aspirating the washings, 2 ml/well of serum-free Eagle's MEM medium supplemented with Supplement A was newly added, and the cultivation was further continued at 37° C. Two days after the medium exchange, the medium was aspirated from each well. Into the wells, 2 ml/well of serum-free Eagle's MEM medium containing Supplement A to which a solution of a test compound in DMSO (or DMSO alone) had been added and mixed was then added, and the cultivation was further continued at 37° C. Two days after the addition of compound, the medium was collected, centrifuged (14,000 rpm, 5 minutes), and the supernatant was aliquoted. To each 0.6 ml aliquot, 20 μl of 1N HCl was added, mixed and then they were stored with ice-cooling. On the other hand, the wells from which the medium had been removed were washed twice with PBS (−). After thoroughly removing the residual liquid, 0.5 ml/well of extra pure water was added, and the cells were harvested, and stored at −80° C. The ice-cold medium supernatant described above was neutralized with 1N NaOH, and 100 μl aliquot thereof was sampled, and used in quantifying TGFβ using an ELISA kit for TGFβ (Biochemical Research Institute, Morinaga Milk Industry Co. Ltd.). On the other hand, the frozen cells were thawed by bringing them to room temperature. The cell suspension thus obtained by thawing the frozen cells was then centrifuged (14,000 rpm, 5 minutes), and 50 μl of the supernatant was used in measurement of alkaline phosphatase (ALP) activity. ALP activity was measured according to the method of Lowry [J. Biol. Chem. vol. 207, 19-37 (1954)]. The samples remained without being used for measurements of TGFβ and ALP activity were used in quantification of protein according to the method of Lowry [J. Biol. Chem. vol. 193, 265-275 (1951)].
The relative values for the amount of TGFβ and the ALP activity after correcting for the amounts of protein are shown in Table 2.

The next assay relates to ovariectomized rats. The assay is described as follows: Effects on ovariectomized rat: bone mineral density of tibial epiphysis. Type of assay: in vivo. To be noted: 17 administrations, average for 5-8 animals, OVX control 79.9. The source says: Six-weeks old female SD rats (Charles River Japan) were subjected to ovariectomy of right and left ovaries, after one-week pre-feeding. Firstly, the hairs around the both flanks of the rats were shaved away. After anesthetizing the rat with diethyl ether, the area around the flanks was disinfected, and incised about 1 cm below the last ribs. The ovaries and uterus were extracted along with fats through the incision, and the ovaries were excised after ligating between ovaries and uterus with suture. The uterus and fats were then returned into the abdomens, and the incision was sutured. For rats receiving mock operations, ovaries were extracted as described above, and then returned into the abdomens as they were without ligature and excision. The rats which received such operations were divided into groups of four animals, and each group was housed in a polypropylene cage, and fed with chow (CRF-1; Charles River Japan) and water ad libitum.
A compound was weighed out into a mortar, and the crystals were finely ground with a pestle. To the ground compound, 1% hydroxypropyl cellulose (HPC, 150-400 cP) was then added in small amounts while rubbing for suspending and mixing the compound to prepare an administration liquid having a given concentration of the compound. Such liquids for administration were newly prepared every week.
The weights of ovariectomized rats described above were measured at an interval of one week, and the doses of the above liquid for administration were determined based on the weights. The same doses were used for one week until the next weight measurement. Administration to rats was started at one week after the ovariectomy, and the above liquids for administration were orally administered 17 times in total to groups of 5-8 animals through a 2 ml volume syringe attached with a metal sonde and once a day at a frequency of 5 times a week. […] The bone mineral density of the tibial epiphysis proximal to the knee was measured by an area scanning method.

Regarding `Cc1cc(C(c2cccc(OCCN(C)C)c2)c2cc(C)c(O)c(C)c2)cc(C)c1O` [Compound 5], the figures for the “Antiestrogenic activity (β/α)” value in assay [1] (compound 1 μM) and in assay [1] (compound 10 μM) were 8.4 and 5.0, respectively.
As for `Cc1cc(C(c2ccc(OCCN(C)C)cc2)c2cc(C)c(O)cc2C)c(C)cc1O` [Compound 1, bis(2,5-dimethyl-4-hydroxyphenyl)[4-(2-dimethylamino-1-ethoxy)phenyl]methane], the “Antiestrogenic activity (β/α)” value worked out at 5.2 in assay [1] (compound 0.1 μM), 8.6 in assay [1] (compound 1 μM) and 3.0 in assay [1] (compound 10 μM). The “ALP activity, relative value considering the value for control as 1” value in assay [2] (compound 0.1 μM) is reported as 2.0; in assay [2] (compound 1 μM), 5.4. Also, the “TGFβ, relative value considering the value for control as 1” value in assay [2] (compound 0.1 μM) is reported as 1.4; in assay [2] (compound 1 μM), 1.1. In addition, the Bone mineral density in the assay with ovariectomized rats (50 mg/kg-weight/day oral) is 88.0* mg/cm^2.
As for `C#C[C@]1(O)CC[C@H]2[C@@H]3CCc4cc(O)ccc4[C@H]3CC[C@@]21C` [ethinyl estradiol, reference compound], in the assay with ovariectomized rats (0.1 mg/kg-weight/day oral), the Bone mineral density is reported as 88.6* mg/cm^2.
As to Hydroxytamoxifen [reference compound], the entries for the “Antiestrogenic activity (β/α)” value in assay [1] (compound 0.1 μM), in assay [1] (compound 1 μM) and in assay [1] (compound 10 μM) were 1.3, 1.9 and 1.5, respectively.
For `Cc1cc(C(c2cccc(OCCN(C)C)c2)c2cc(C)c(O)c(C)c2C)c(C)c(C)c1O` [Compound 3], in that order: 2.6, 4.0 and 2.0.
For `Cc1cc(C(c2ccc(OCCN(C)C)cc2)c2cc(C)c(O)c(C)c2)cc(C)c1O` [Compound 4], in that order: 1.5, 14 and 5.0.
Take `Cc1cc(C(c2cccc(OCCN(C)C)c2)c2cc(C)c(O)cc2C)c(C)cc1O` [Compound 2, bis(2,5-dimethyl-4-hydroxyphenyl)[3-(2-dimethylamino-1-ethoxy)phenyl]methane]: the entries for the “Antiestrogenic activity (β/α)” value in assay [1] (compound 0.1 μM), in assay [1] (compound 1 μM) and in assay [1] (compound 10 μM) were 19, 5.5 and 2.3, respectively. Moreover, the “ALP activity, relative value considering the value for control as 1” value in assay [2] (compound 0.1 μM) came to 1.5. The Bone mineral density in the assay on ovariectomized rats (50 mg/kg-weight/day oral) was 91.2* mg/cm^2.
